pIC50, pKd: −log10 of the molar value. Blank lines part the entries; values can stand above or below the molecule they belong to.
Experiments:
[1] = target: T1, BAZ2B (Homo sapiens, UniProt Q9UIF8); test: Protein thermal denaturation assay; type: binding; conditions: 5 µM protein, 100 µM compound
T1 construct: bromodomains contained within six other proteins (CREBBP, p300, BAZ2B, GCN5, PHIP and SMARC2A); His-tag (N)
Experimental: (§1) 5 µM of purified bromodomain protein was incubated with 5X SYPRO® Orange (Molecular Probes) at a final concentration of 20 mM HEPES pH 7.4, 100 mM NaCl in the presence of 100 µM compound or DMSO (0.2%) in a fast 96 well optical plate (Applied Biosytems). Samples were incubated at room temperature for 30 minutes and ramped from 25°C to 95°C in a ViiA7 real-time PCR machine (Applied Biosystems). The resulting fluorescence data was analyzed and melting temperatures calculated using Protein Thermal Shift™ Software v1.0 (Life Technologies).

[2] = target: T2, BRD2[BD1] (Homo sapiens, UniProt P25440); test: Protein thermal denaturation assay; type: binding
T2 construct: we expressed and purified the bromodomains (BD1, BD2) for the BETs expressed in hepatocytes (BRD2, BRD3, BRD4)
T2 sequence (P25440 74-180 limits assumed): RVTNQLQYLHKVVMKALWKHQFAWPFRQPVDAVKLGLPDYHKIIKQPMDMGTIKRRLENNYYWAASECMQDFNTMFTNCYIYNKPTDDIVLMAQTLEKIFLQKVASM
Experimental: as §1

[3] = target: T3, BRD2[BD2] (Homo sapiens, UniProt P25440); test: Protein thermal denaturation assay; type: binding
T3 construct: we expressed and purified the bromodomains (BD1, BD2) for the BETs expressed in hepatocytes (BRD2, BRD3, BRD4)
T3 sequence (P25440 344-453 limits assumed): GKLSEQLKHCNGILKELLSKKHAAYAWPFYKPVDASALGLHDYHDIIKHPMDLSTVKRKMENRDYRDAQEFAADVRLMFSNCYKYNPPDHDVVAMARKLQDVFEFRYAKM
Experimental: as §1

[4] = target: T4, BRD3[BD1] (Homo sapiens, UniProt Q15059); test: Protein thermal denaturation assay; type: binding; conditions: 5 µM protein, 100 µM compound
T4 construct: we expressed and purified the bromodomains (BD1, BD2) for the BETs expressed in hepatocytes (BRD2, BRD3, BRD4)
T4 sequence (Q15059 34-140 limits assumed): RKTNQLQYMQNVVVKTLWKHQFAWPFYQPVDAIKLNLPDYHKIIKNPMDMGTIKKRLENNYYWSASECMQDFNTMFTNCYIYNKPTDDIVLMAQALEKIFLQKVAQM
Experimental: as §1

[5] = target: T5, BRD3[BD2] (Homo sapiens, UniProt Q15059); test: Protein thermal denaturation assay; type: binding; conditions: 5 µM protein, 100 µM compound
T5 construct: we expressed and purified the bromodomains (BD1, BD2) for the BETs expressed in hepatocytes (BRD2, BRD3, BRD4)
T5 sequence (Q15059 306-415 limits assumed): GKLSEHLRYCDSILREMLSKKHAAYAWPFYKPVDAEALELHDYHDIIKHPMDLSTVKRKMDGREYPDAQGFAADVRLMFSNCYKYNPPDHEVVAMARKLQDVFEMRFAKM
Experimental: as §1

[6] = target: T6, BRD4[BD1] (Homo sapiens, UniProt O60885); test: Protein thermal denaturation assay; type: binding
T6 construct: we expressed and purified the bromodomains (BD1, BD2) for the BETs expressed in hepatocytes (BRD2, BRD3, BRD4)
Experimental: as §1

[7] = target: T7, BRD4[BD2] (Homo sapiens, UniProt O60885); test: Protein thermal denaturation assay; type: binding
T7 construct: we expressed and purified the bromodomains (BD1, BD2) for the BETs expressed in hepatocytes (BRD2, BRD3, BRD4)
Experimental: as §1

[8] = target: T8, CREBBP (Homo sapiens, UniProt Q92793); test: Protein thermal denaturation assay; type: binding; conditions: 5 µM protein, 100 µM compound
T8 construct: bromodomains contained within six other proteins (CREBBP, p300, BAZ2B, GCN5, PHIP and SMARC2A); His-tag (N)
T8 sequence (Q92793 1085-1192 limits assumed): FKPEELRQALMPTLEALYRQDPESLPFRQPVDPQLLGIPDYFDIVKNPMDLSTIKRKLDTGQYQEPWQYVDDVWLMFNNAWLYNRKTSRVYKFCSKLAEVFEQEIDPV
Experimental: as §1

[9] = target: T9, GCN5 (Homo sapiens, UniProt Q92830); test: Protein thermal denaturation assay; type: binding; conditions: 5 µM protein, 100 µM compound
T9 construct: bromodomains contained within six other proteins (CREBBP, p300, BAZ2B, GCN5, PHIP and SMARC2A); His-tag (N)
T9 sequence (Q92830 728-832 limits assumed): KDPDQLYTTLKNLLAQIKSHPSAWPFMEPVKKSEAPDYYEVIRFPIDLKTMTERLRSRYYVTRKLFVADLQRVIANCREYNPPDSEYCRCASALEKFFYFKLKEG
Experimental: as §1

[10] = target: T10, P300 (Homo sapiens, UniProt Q09472); test: Protein thermal denaturation assay; type: binding; conditions: 5 µM protein, 100 µM compound
T10 construct: bromodomains contained within six other proteins (CREBBP, p300, BAZ2B, GCN5, PHIP and SMARC2A); His-tag (N)
T10 sequence (Q09472 1049-1156 limits assumed): as the sequence (Q92793 1085-1192 limits assumed) above, with N47S, V73I, F93Y, A98S counted along it
Experimental: as §1

[11] = target: T11, PHIP (Homo sapiens, UniProt Q8WWQ0); test: Protein thermal denaturation assay; type: binding; conditions: 5 µM protein, 100 µM compound
T11 construct: bromodomains contained within six other proteins (CREBBP, p300, BAZ2B, GCN5, PHIP and SMARC2A); His-tag (N)
Experimental: as §1

[12] = target: T12, SMARCA2A (Homo sapiens, UniProt P51531); test: Protein thermal denaturation assay; type: binding; conditions: 5 µM protein, 100 µM compound
T12 construct: bromodomains contained within six other proteins (CREBBP, p300, BAZ2B, GCN5, PHIP and SMARC2A); His-tag (N)
T12 sequence (P51531 1378-1506 limits assumed): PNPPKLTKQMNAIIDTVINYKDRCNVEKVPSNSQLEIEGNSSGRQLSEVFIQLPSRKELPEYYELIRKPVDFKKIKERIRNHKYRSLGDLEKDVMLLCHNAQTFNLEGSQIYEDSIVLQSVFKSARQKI
Experimental: as §1

[13] = target: BRDT tandem bromodomains [BD1 BD2] (Homo sapiens, UniProt Q58F21); test: TR-FRET competition assay, tandem bromodomains; type: binding
Experimental: (§2) For inhibition assays, serially diluted compound was added to these reactions in a 0.2% final concentration of DMSO. Final buffer concentrations were 30 mM HEPES pH 7.4, 30 mM NaCl, 0.3 mM CHAPS, 20 mM PO4 pH 7.0, 320 mM KF, 0.08% BSA). After 2 h incubation at room temperature, the fluorescence by FRET was measured at 665 and 620 nm by a SynergyH4 plate reader (Biotek). IC50 values were determined from a dose response curve.

[14] = target: T2, BRD2[BD1]; test: Isothermal titration calorimetry; type: binding; conditions: ITC, 25°C
[15] = target: T3, BRD2[BD2]; test: Isothermal titration calorimetry; type: binding; conditions: ITC, 25°C
[16] = target: T6, BRD4[BD1]; test: Isothermal titration calorimetry; type: binding; conditions: ITC, 25°C
[17] = target: T7, BRD4[BD2]; test: Isothermal titration calorimetry; type: binding; conditions: ITC, 25°C
[18] = target: BD1 bromodomains of BRDs 2 and 3; test: TR-FRET competition assay; type: binding, human; conditions: BD1 of BRDs 2 and 3, text summary citing Table 3
Experimental: as §2, with “200 nM N-terminally His-tagged bromodomains or BRD4(BD1BD2) and 25–50 nM biotinylated tetra-acetylated histone H4 peptide (Millipore) were incubated in the presence of Europium Cryptate-labeled streptavidin (Cisbio Cat. #610SAKLB) and XL665-labeled monoclonal anti-His antibody (Cisbio Cat.#61HISXLB) in a white 96 well microtiter plate (Greiner). For” for “For”

[19] = test system: bromodomains of CREBBP, p300, BAZ2B, GCN5, PHIP and SMARC2A; test: Protein thermal denaturation assay (text summary); type: binding
Experimental: as §1

[20] = test system: ApoA-I mRNA in Huh7 cells; test: Induction of ApoA-I mRNA in Huh7 cells (RT-PCR); type: cell-based, human; conditions: for Induction of ApoA-I mRNA: 48 h
Experimental: (§3) Huh7 cells were plated at 23,000/well in a 96 well plate in DMEM +10% FBS before allowing to grow overnight. Cells were treated with compounds for 48 h in 0.1%DMSO with or without 5 µM Actinomycin D. U937 cells were differentiated for 3 days in 60 ng/mL PMA, 32,000 cells/well in 96-well format. Cells were then treated with compound in 0.1%DMSO in RPMI media +10%FBS, and after 1 h, lipopolysaccharide (LPS, Sigma) was added to the cells at 1 µg/mL for 3 hours.
(§4) Cells were harvested by mRNA Catcher PLUS Kit followed by real-time PCR using the RNA UltraSense One-Step qRT-PCR System. ApoA-I, IL-6 and TNFα mRNA levels were measured relative to the endogenous control serpin A1 or cyclophilin in the same sample. Data was acquired using the 7500 Real Time PCR System (Applied Biosystems).

[21] = test system: IL-6 mRNA in U937 cells; test: Inhibition of IL-6 mRNA in LPS-stimulated U937 cells (RT-PCR); type: cell-based, human; conditions: U937 cells differentiated with PMA
Experimental: as §3, §4

[22] = test system: BRDs2, 3 and 4 on chromatin in Huh7 cells; test: Extraction of soluble BET proteins from chromatin (Western blot); type: cell-based, human
Experimental: Soluble proteins were extracted using a buffer containing 0.5% Triton X-100 (10 mM PIPES pH 6.8, 300 mM sucrose, 50 mMNaCl, 3 mM MgCl2, 1 mM EGTA, 2 mM ribonucleoside vanadyl complex) as previously described.

[23] = target: T13, PHIP on chromatin in Huh7 cells (Homo sapiens, UniProt Q8WWQ0); test: Extraction of soluble proteins from chromatin (Western blot); type: cell-based
T13 construct: endogenous in cells; host or cells: Huh7
Experimental: Soluble proteins were extracted using a buffer containing 0.5% Triton X-100 (10 mM PIPES pH 6.8, 300 mM sucrose, 50 mMNaCl, 3 mM MgCl2, 1 mM EGTA, 2 mM ribonucleoside vanadyl complex) as previously described. After loading on a 4–12% NuPAGE gradient gel (Life Technologies), the soluble and chromatin-containing pellet fractions were evaluated by Western blot with the following antibodies and dilutions: BRD2 (Bethyl, A302-583A, 1∶5000); BRD3 (Bethyl A302-368A, 1∶2000); BRD4 (Bethyl A301-985A, 1∶1000); PHIP (Abcam ab86244, 1∶2000), HNF4a (Perseus PPH1415, 1∶1000); NR2F2 (Perseus PPH7147, 1∶1000).

[24] = test system: ApoA-I mRNA in HepG2; conditions: cited from earlier work
[25] = test system: cholesterol efflux capacity; conditions: monkeys; cited from earlier work
[26] = test system: ApoA-I and HDL-C levels; set-up: method as in PMID 21255957; conditions: statin-treated patients with coronary artery disease; cited from earlier work

T1 sequence (Q9UIF8 2060-2164 limits assumed): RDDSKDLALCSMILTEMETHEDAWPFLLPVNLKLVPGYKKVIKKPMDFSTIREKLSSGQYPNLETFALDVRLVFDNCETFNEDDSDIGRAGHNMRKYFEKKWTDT

ΔTm at 100 µM [1]: 0 °C | ΔTm at 100 µM [2]: 1.9 °C | ΔTm at 100 µM [3]: 5.1 °C | ΔTm at 100 µM [4]: 2.6 °C | ΔTm at 100 µM [5]: 6.8 °C | ΔTm at 100 µM [6]: 3.9 °C | ΔTm at 100 µM [7]: 7.7 °C | ΔTm at 100 µM [8]: -0.3 °C | ΔTm at 100 µM [9]: 0 °C | ΔTm at 100 µM [10]: -0.16 °C | ΔTm at 100 µM [11]: 0.19 °C | ΔTm at 100 µM [12]: 0.4 °C | pIC50 [13]: 5.84 | ΔH [14]: -12.67 kcal/mol | ΔH [15]: -4.145 kcal/mol | ΔS [15]: +16.7 cal mol^−1 K^−1 | ΔH [16]: -17.04 kcal/mol | ΔS [16]: −34.1 cal mol^−1 K^−1 | ΔH [17]: -6.376 kcal/mol | ΔS [17]: +8.44 cal mol^−1 K^−1 | pKd [18]: 5.52 to 5.70 | Binding to bromodomains of six other proteins [19]: did not bind | Release of BRDs2, 3 and 4 from chromatin into soluble fraction [22]: partially released from chromatin
Compound: COc1cc(OC)c2c(=O)[nH]c(-c3cc(C)c(OCCO)c(C)c3)nc2c1 [RVX-208, 2-(4-(2-hydroxyethoxy)-3,5-dimethylphenyl)-5,7-dimethoxyquinazolin-4(3H)-one]
Induction of ApoA-I in presence of Actinomycin D ([20]; 30 µM RVX-208, with 5 µM Actinomycin D): inhibited by Actinomycin D | Induction of ApoA-I mRNA [20]: induces ApoA-I mRNA | Suppression of IL-6 mRNA [21]: selectively suppresses IL-6 mRNA | Duration of release of BET proteins from chromatin [22]: more than 48 h | Time to release of BET proteins from chromatin ([22]; time of treatment): ≤ 2 h | Release of PHIP from chromatin [23]: stays in the insoluble (pellet, P) fraction | Induction of ApoA-I mRNA [24]: induces ApoA-I mRNA | Systemic capacity to promote cholesterol efflux [25]: enhanced systemic capacity to promote cholesterol efflux | ApoA-I levels [26]: increased | HDL-C levels [26]: increased

Compound: Cc1sc2c(c1C)C(c1ccc(Cl)cc1)=N[C@@H](CC(=O)OC(C)(C)C)c1nnc(C)n1-2 [JQ-1, reference compound]
Thermal denaturation ΔTm [1]: −0.83 °C | Thermal denaturation ΔTm [8]: −1.0 °C | Thermal denaturation ΔTm [9]: −0.7 °C | Thermal denaturation ΔTm [10]: −1.4 °C | Thermal denaturation ΔTm [11]: −1.4 °C | Thermal denaturation ΔTm [12]: 0.4 °C | Induction of ApoA-I mRNA [20]: induces ApoA-I mRNA | Suppression of IL-6 mRNA [21]: selectively suppresses IL-6 mRNA

From PMC3877016 (PLoS ONE, 2013)
